Here are results for one compound from article PMC7933930, “Development of a small molecule that corrects misfolding and increases secretion of Z α1‐antitrypsin” (EMBO Molecular Medicine, 2021).

Structures are written as SMILES. Some results are limits rather than exact numbers.

The target in one series is Monoamine oxidase A (Homo sapiens, UniProt P21397). Description: Off‐target panel: Monoamine oxidase A. Type of series: biochemical. The conditions noted are these: Inhibition, read-out: Mean (PXC50). How it is done: (§1) GSK716 selectivity and PK properties were profiled in order to investigate the suitability of GSK716 for progression into in vivo studies and the potential for taking it forward as a clinical candidate for testing in humans. Since GSK716 results in loss of inhibitory activity of α1‐antitrypsin, the effect of the compound was assessed on other closely related serpins. […] Furthermore, there were no off‐target effects in a panel of assays considered predictive of known safety liabilities that precluded further development of GSK716 (Table EV1).

The next series addresses antithrombin (Homo sapiens, UniProt P01008). Description: Inhibitory activity of antithrombin against thrombin. It counts as biochemical. The procedure:
Figure 5 The effect of GSK716 on serpin inhibitory activity • α1‐Antitrypsin was incubated at varying molar ratios with the model protease bovine α‐chymotrypsin, and the residual protease activity determined. The intercept of the regression with the abscissa reflects the number of molecules of α1‐antitrypsin required to inhibit one molecule of chymotrypsin in the presence (+c) and absence (−c) of 50µM GSK716. Error bars reflect ± SEM of three independent experiments. • M α1‐antitrypsin was incubated with different molar ratios of chymotrypsin and resolved by SDS–PAGE. The position of covalent α1‐antitrypsin‐chymotrypsin complex (cpx), native (nat) and cleaved (clv) is shown. • The inhibitory activity of α1‐antichymotrypsin against chymotrypsin (ach + chym), neuroserpin against trypsin (neus + tryp), and antithrombin against thrombin (atiii + thrombin) was determined in the presence and absence of GSK716. Error bars reflect ± SD of two independent experiments.
GSK716 selectivity and PK properties were profiled in order to investigate the suitability of GSK716 for progression into in vivo studies and the potential for taking it forward as a clinical candidate for testing in humans. Since GSK716 results in loss of inhibitory activity of α1‐antitrypsin, the effect of the compound was assessed on other closely related serpins. […]

The target in the next series is α1 nicotinic AChR (Homo sapiens, UniProt P02708). Description: Off‐target panel: α1 nicotinic AChR. It counts as cell-based. How it is done:
as §1

The next series has as its target Dopamine D2 (Homo sapiens, UniProt P14416). Description: Off‐target panel: Dopamine D2. Type of series: cell-based. How it is done:
as §1

For a further series, the target named is T1, Serotonin 5HT2C (Homo sapiens, UniProt P28335).
T1 sequence (P28335 33-458): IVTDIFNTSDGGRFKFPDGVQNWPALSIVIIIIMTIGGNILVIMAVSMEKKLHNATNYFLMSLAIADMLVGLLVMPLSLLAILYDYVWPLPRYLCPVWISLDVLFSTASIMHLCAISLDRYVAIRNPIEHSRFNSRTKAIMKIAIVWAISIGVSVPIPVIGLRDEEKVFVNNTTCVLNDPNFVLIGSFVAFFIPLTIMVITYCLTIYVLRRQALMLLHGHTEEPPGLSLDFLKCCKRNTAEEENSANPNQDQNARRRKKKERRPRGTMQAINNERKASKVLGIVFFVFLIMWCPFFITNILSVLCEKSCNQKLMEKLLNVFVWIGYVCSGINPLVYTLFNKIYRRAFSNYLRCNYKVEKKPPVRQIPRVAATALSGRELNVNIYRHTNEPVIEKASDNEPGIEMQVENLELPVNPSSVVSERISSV
The series is described as follows: Off‐target panel: Serotonin 5HT2C (DRX). It counts as cell-based. The procedure: as §1

Another series concerns the target Serotonin 5HT2A (Homo sapiens, UniProt P28223). Description: Off‐target panel: Serotonin 5HT2A. Type of series: cell-based. How it is done: as §1
The next series concerns the target Serotonin 5HT2B (Homo sapiens, UniProt P41595). The series is described as follows: Off‐target panel: Serotonin 5HT2B (DRX). Type of series: cell-based. The procedure: as §1
For a further series, the target named is T2, Serotonin 5HT3 (Homo sapiens, UniProt P46098).
T2 sequence (P46098 24-478): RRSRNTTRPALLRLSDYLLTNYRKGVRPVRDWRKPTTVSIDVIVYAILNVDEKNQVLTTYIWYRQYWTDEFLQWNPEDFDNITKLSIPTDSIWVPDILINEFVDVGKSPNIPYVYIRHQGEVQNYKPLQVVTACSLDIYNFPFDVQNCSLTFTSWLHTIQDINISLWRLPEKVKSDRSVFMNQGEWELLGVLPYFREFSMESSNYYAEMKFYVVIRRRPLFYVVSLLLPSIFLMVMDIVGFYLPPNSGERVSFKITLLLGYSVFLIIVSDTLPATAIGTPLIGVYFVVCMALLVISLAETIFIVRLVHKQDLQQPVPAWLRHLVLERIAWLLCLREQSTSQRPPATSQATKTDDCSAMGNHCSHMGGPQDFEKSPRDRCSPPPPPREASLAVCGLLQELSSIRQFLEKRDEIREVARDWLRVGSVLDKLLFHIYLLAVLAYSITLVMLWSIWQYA
Description: Off‐target panel: Serotonin 5HT3. Type of series: cell-based. How it is done:
as §1

A further series concerns Phospholipidosis. The series is described as follows: Off‐target panel: Phospholipidosis. Type of series: cell-based. To be noted: Induction (pMEC). The procedure:
as §1

For another series, the target named is Acetyl- cholinesterase (Homo sapiens, UniProt P22303). The series is described as follows: Off‐target panel: Acetyl- cholinesterase. It counts as biochemical. The procedure:
as §1

A further series has as its system Cell Health. Description: Off‐target panel: Cell Health. It counts as cell-based. The procedure: as §1
For another series, the target named is PXR (rat) (Rattus norvegicus, UniProt Q9R1A7). The series is described as follows: Off‐target panel: PXR (rat). It counts as cell-based. The procedure: as §1
PXR (rat), sequence (Q9R1A7 whole entry): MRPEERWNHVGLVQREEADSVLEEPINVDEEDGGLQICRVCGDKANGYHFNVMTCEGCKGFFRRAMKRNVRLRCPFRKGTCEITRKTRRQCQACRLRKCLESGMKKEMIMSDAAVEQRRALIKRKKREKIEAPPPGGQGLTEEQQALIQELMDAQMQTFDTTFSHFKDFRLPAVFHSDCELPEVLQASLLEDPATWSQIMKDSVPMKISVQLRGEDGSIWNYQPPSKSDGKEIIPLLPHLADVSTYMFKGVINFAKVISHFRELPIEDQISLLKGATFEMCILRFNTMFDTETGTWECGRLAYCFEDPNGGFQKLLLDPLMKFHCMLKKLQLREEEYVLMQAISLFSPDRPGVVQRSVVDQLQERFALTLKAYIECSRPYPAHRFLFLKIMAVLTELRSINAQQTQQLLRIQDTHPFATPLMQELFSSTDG

Serotonin 5HT2A, sequence (P28223 whole entry): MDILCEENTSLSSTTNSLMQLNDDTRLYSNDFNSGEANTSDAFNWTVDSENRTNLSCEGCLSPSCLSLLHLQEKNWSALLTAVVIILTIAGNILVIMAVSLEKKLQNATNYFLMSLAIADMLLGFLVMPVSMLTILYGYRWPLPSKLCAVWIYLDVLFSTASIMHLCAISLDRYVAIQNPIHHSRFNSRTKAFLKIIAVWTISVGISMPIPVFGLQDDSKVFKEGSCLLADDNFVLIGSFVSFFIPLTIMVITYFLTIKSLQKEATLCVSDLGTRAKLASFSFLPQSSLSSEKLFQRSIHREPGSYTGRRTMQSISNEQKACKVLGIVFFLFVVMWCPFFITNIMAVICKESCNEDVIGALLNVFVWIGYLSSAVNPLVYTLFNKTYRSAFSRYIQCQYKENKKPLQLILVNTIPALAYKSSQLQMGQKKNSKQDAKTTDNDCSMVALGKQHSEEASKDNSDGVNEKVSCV
α1 nicotinic AChR, sequence (P02708 21-457): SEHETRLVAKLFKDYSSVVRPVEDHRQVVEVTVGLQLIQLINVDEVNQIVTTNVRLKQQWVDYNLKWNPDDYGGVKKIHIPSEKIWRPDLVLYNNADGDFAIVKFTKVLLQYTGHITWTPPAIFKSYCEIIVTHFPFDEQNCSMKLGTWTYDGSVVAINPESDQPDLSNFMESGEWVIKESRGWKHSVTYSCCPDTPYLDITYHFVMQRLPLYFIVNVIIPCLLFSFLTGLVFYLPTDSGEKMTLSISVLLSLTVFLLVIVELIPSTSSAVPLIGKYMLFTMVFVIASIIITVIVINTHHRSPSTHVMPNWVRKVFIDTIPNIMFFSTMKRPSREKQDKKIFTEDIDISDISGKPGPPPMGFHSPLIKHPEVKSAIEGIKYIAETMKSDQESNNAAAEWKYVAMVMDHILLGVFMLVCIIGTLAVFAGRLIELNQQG
α1 nicotinic AChR, sequence (P11230 24-501 partner): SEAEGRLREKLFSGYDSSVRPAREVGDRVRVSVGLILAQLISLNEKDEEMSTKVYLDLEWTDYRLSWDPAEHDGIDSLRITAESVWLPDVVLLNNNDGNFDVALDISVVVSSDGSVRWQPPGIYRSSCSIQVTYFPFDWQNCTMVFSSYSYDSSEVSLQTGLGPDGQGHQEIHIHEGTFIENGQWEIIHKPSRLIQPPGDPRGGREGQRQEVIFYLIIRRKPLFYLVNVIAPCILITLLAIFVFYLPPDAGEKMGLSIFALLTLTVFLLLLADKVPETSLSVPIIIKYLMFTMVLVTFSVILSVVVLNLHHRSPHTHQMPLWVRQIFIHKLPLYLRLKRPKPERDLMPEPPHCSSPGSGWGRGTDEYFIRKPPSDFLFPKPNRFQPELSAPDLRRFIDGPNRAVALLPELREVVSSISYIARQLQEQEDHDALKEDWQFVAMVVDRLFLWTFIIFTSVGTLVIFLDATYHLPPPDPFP
α1 nicotinic AChR, sequence (Q07001 22-517 partner): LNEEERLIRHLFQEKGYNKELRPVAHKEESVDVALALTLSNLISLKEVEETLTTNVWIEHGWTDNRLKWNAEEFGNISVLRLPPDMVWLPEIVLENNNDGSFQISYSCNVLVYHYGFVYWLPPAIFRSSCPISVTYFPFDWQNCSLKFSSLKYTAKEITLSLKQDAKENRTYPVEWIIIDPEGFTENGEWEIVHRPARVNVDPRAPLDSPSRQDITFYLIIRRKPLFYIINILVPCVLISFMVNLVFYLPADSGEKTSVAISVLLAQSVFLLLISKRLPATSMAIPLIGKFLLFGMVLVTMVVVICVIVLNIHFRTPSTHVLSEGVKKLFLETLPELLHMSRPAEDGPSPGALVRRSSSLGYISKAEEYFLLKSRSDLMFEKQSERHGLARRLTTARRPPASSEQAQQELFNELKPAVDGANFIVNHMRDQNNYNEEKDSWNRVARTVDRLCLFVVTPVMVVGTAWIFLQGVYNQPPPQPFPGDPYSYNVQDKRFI
Dopamine D2, sequence (P14416 whole entry): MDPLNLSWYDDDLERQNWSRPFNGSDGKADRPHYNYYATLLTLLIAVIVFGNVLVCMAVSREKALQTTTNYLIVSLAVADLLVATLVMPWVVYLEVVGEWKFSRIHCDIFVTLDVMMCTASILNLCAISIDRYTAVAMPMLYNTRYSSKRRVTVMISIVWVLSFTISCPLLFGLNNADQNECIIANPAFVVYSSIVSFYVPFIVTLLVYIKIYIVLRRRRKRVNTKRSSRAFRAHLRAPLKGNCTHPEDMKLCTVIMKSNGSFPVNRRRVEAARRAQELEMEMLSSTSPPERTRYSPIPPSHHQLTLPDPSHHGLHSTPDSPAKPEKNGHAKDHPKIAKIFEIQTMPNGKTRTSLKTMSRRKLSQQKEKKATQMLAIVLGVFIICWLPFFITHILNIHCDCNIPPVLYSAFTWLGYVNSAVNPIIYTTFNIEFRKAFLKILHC
Monoamine oxidase A, sequence (P21397 whole entry): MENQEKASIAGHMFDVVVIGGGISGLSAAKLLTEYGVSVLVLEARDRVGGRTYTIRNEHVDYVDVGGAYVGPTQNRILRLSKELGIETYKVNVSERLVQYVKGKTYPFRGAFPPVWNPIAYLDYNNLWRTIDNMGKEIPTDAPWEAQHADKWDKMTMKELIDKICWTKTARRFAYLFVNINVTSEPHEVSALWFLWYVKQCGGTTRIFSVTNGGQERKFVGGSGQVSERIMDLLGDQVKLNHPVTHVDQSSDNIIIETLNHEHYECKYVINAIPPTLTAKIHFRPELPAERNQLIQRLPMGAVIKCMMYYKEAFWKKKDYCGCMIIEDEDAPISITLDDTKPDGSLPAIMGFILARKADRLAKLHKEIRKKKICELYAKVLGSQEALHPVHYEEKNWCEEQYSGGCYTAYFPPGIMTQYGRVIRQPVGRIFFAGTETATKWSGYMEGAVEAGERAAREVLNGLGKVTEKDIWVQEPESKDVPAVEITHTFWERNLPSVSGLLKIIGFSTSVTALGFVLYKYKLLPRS
Acetyl- cholinesterase, sequence (P22303 32-614, species assumed): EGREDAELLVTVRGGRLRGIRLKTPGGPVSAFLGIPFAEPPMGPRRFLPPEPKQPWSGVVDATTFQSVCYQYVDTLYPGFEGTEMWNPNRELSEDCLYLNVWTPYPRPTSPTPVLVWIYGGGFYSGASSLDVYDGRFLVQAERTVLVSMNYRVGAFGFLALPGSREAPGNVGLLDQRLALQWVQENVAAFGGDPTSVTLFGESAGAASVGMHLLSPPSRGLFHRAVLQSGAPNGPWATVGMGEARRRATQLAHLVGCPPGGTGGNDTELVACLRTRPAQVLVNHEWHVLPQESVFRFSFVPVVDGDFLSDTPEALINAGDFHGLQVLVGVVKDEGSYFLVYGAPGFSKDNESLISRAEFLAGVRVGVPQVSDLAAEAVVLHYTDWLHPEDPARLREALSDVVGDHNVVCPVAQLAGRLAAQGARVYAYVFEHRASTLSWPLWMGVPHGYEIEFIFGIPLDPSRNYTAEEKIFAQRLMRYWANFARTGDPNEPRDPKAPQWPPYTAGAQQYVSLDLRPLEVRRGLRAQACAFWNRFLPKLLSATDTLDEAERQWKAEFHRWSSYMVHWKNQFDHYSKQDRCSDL
Serotonin 5HT2B, sequence (P41595 whole entry): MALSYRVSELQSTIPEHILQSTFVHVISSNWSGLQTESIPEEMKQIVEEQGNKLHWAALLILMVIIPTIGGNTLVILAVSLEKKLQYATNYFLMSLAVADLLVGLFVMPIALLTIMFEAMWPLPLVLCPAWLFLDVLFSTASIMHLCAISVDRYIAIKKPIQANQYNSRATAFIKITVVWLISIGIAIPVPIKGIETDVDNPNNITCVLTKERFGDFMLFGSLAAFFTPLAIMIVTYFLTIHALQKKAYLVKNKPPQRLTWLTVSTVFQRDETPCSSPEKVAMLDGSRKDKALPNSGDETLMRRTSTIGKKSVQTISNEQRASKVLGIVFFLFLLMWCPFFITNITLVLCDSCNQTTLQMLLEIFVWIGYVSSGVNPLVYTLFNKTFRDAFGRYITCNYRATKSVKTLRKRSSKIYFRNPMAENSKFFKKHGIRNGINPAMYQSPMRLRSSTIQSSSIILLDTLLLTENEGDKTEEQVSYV
antithrombin, sequence (P01008 33-464): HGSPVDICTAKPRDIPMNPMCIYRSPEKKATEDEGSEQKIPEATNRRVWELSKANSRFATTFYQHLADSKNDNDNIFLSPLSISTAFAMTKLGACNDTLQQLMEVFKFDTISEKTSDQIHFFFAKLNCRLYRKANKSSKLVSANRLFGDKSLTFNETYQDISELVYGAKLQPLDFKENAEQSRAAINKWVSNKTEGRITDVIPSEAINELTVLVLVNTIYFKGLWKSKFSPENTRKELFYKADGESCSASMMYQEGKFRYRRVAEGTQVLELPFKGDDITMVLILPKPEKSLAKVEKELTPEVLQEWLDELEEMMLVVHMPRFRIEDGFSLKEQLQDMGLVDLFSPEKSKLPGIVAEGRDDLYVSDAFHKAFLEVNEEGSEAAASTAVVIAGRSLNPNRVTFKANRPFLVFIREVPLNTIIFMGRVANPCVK

`CCC[C@@H](NC(=O)c1cccc2c1CC(=O)N2)[C@@H](O)c1cccc(F)c1C` [GSK716]: the IC50 at Monoamine oxidase A was greater than 100 µM; at α1 nicotinic AChR it was 31.6 µM; against Dopamine D2 it was greater than 100 µM; against Serotonin 5HT2C, 50.1 µM; at Serotonin 5HT2A, greater than 25.1 µM; at Serotonin 5HT3, 31.6 µM. In addition, at Acetyl- cholinesterase, the IC50 is 100 µM. Also, at antithrombin, the “inhibitory activity of antithrombin towards its cognate protease” value is reported as “did not affect”. Also, the concentration for a half-maximal effect (EC50) is greater than 50.1 µM on α1 nicotinic AChR; greater than 100 µM on Dopamine D2; greater than 100 µM at Serotonin 5HT2C; greater than 25.1 µM at Serotonin 5HT2A; 39.8 µM at Serotonin 5HT2B; greater than 50.1 µM at Serotonin 5HT3. The same compound had an EC50 on PXR (rat) of 12.6 µM. Also, in the series with Phospholipidosis, the “Mean (PXC50): pMEC” value is “pMEC= 5.8”. In addition, the “Mean (PXC50)” value is listed as less than 3.7 with Cell Health (Membrane Permeability), 3.8 with Cell Health (Mitochondrial Potential) and less than 3.7 in the series with Cell Health (Nucleus (size)).
